# Test results published in publication PMC12627007, “HIV nucleocapsid proteins as targets for novel 1,2-benzisothiazol-3(2H)-one benzenesulfonamides: synthesis and antiretroviral activity” (Frontiers in Microbiology, 2025).
# Like-named read-outs stand apart in the source and are kept apart here.
# What was measured:
# [1] = system: HIV-1 EFVR (K103R + V179D + P225H); assay: Inhibition of virus-induced cytopathogenicity in MT-4 cells, NNRTI-resistant mutant EFVR; format: cell-based; conditions: for EC50: Human immunodeficiency virus 1, MT4, read-out: EC50 EFVR
# Protocol: (§1) HIV-1IIIB and HIV-2 CBL-20 strains were obtained from the supernatants of persistently infected H9/IIIB and CEM cells, respectively. HIV-1 and HIV-2 stock solutions had titres of 4.5 × 10^7 and 1.4 × 10^6 50% cell culture infectious doses (CCID50)/ml, respectively. […] The K103R + V179D + P225H mutant (EFVR) was derived from an IIIB strain passaged in MT-4 cells in the presence of Efavirenz (up to 2 μM). N119, A17 and EFV^R stock solutions had titres of 1.2 × 10^8, 2.1 × 10^7, and 4.0 × 10^7 CCID50/ml, respectively.
# (§2) The activity of the test compounds against the replication of HIV-1 wt and mutant strains (N119, A17, EFV^R, AZT^R, MDR, SAQ^R) and HIV-2 wt in acutely infected cells was based on the inhibition of virus-induced cytopathogenicity in MT-4 and C8166 cells, respectively. Briefly, 50 μL of culture medium containing 1 × 10^4 cells was added to each well of flat-bottom microtitre trays containing 50 μL of culture medium with or without different serial concentrations of test compounds. Then, 20 μL of an HIV suspension (containing the appropriate amount of CCID50 required to cause complete cytopathogenicity on day 4, final multiplicity of infection [m.o.i.] 0.01) was added.
# [2] = Cytotoxicity in mock-infected MT-4 cells (MTT method); format: cell-based; conditions: human
# Protocol: as §2, with “added. After incubation at 37 °C, cell viability was determined using the […] (MTT) method ([Pauwels et al., 1988]). The cytotoxicity of the test compounds was evaluated in parallel with their antiviral activity through the viability of mock-infected, treated cells, as monitored by the MTT method and described elsewhere ([Morellet et al., 1994]).” for “added.”
# [3] = system: HIV-1 A17 (K103N + Y181C); assay: Inhibition of virus-induced cytopathogenicity in MT-4 cells, NNRTI-resistant mutant A17; format: cell-based; conditions: for EC50: Human immunodeficiency virus 1, MT4, read-out: EC50 A17
# Protocol: as §1, §2
# [4] = system: chronically HIV-1-infected H9 cells / uninfected C8166 cells; assay: Syncytium formation in chronically infected H9/C8166 cocultures (entry assay); format: cell-based; conditions: 36 h
# Protocol: Chronically infected H9 cells were washed and cocultured with uninfected C8166 cells (ratio 1:500) in the absence or presence of test inhibitors. Following 36 h of incubation at 37 °C, cocultures were monitored by optical microscopy, syncytia were counted, and those found in drug-treated cocultures were reported as a percentage of those counted in untreated cocultures ([Wang et al., 2004]).
# In this assay, syncytia were formed as a result of the interaction of env-encoded glycoproteins (present on the outer membrane of chronically infected H9 cells) with the CD4 of cocultured C8166 cells.
# Figure 3 Comparative activity of compound 6 (30 μM) and dextran sulphate (0.5 μM) in preventing syncytium formation in chronically infected H9/C8166 cocultures. The H9/C8166 ratio was […]. The cells were incubated for 36 h at 37 °C. Data represent mean values of at least three independent determinations of syncytial numbers using an optical microscope. Bars are mean values, and whiskers are standard deviations (SD) of at least three independent experiments.
# [5] = target: T1, HIV-1 recombinant integrase (rIN) (Human immunodeficiency virus type 1 group M subtype B, UniProt P04585); assay: Integrase (rIN) enzyme assays: 3'-processing and strand transfer; format: biochemical; conditions: for IC50: recombinant HIV-1 integrase
# T1 construct: HIV-1 recombinant integrase (rIN); made in house
# Source text: ^aCompound concentration (µM) required to reduce the amount of 3’-end-labeled duplex of 21/19mers substrates, in 3’-processing and strand-transfer reactions catalyzed by the recombinant HIV-1 integrase, by 50%. Data represent mean values for three independent determinations.
# HIV-1 wt = assay: Time of addition assay in MT-4 cells; format: cell-based; conditions: compound 6 15 μM, EFV 0.05 μM; MT-4, m.o.i. 5
# Protocol: 2 × 10^4 MT-4 cells were infected for 1 h at 20 °C with HIV-1 at a high multiplicity of infection (m.o.i. = 5), corresponding to 5 cell culture infectious dose 50 per cell (CCID50/cell).
# (§3) Titration was performed in C8166 cells using the standard limiting dilution method (dilution 1:2, four replica wells/dilution) in 96-well plates.
# Virus yields were determined using the Reed–Muench method. Bars are mean values, and whiskers are standard deviations (SD) of three independent experiments.
# [6] = target: T2, HIV-1 reverse transcriptase (Human immunodeficiency virus type 1 group M subtype B, UniProt P04585); assay: Reverse transcriptase enzyme assay; format: biochemical
# T2 construct: recombinant HIV-1 reverse transcriptase
# [7] = system: HIV-1 MDR (74V, 41L, 106A, 215Y); assay: Inhibition of virus-induced cytopathogenicity in MT-4 cells, NRTI-resistant mutant MDR; format: cell-based; conditions: for EC50: Human immunodeficiency virus 1, MT4, read-out: EC50 MDR
# Protocol: as §1, §2
# cell-free HIV-2 = assay: Virucidal activity against cell-free HIV-2 (Reed-Muench titration); format: cell-based
# Protocol: (§4) Cell-free, high-titre HIV-1 and HIV-2 stock solutions were exposed to the test compounds for 2 h at 0 °C or 37 °C. At the end of incubation, residual infectivity was determined using the Reed–Muench end-point titration method, as described below.
# as §3
# HIV-1 N119 (Y181C) = assay: Inhibition of virus-induced cytopathogenicity in MT-4 cells, NNRTI-resistant mutant N119; format: cell-based; conditions: for EC50: Human immunodeficiency virus 1, MT4, read-out: EC50 N119
# Protocol: as §1, §2
# cell-free HIV-1 = assay: Virucidal activity against cell-free HIV-1 (Reed-Muench titration); format: cell-based; conditions: for Infectivity inactivation of cell-free HIV-1: 37 °C
# Protocol: as §4, §3
# [8] = microbe, parasite or virus in culture; format: cell-based, HIV-1; conditions: all tested strains (HIV-1 wt, mutants, HIV-2)
# Protocol: as §1, §2
# HIV-1 IIIB strain = assay: microbe, parasite or virus in culture; format: cell-based; conditions: for EC50: Human immunodeficiency virus 1, IIIB
# Protocol: as §1, §2
# [9] = system: HIV-1 AZTR (67N, 70R, 215F, 219Q); assay: Inhibition of virus-induced cytopathogenicity in MT-4 cells, NRTI-resistant mutant AZTR; format: cell-based; conditions: for EC50: Human immunodeficiency virus 1, MT4, read-out: EC50 AZTR
# Protocol: as §1, §2
# HIV-2 CBL-20 strain = assay: Inhibition of HIV-2-induced cytopathogenicity in C8166 cells (MTT); format: cell-based
# Protocol: as §1, §2
# [10] = system: HIV-1 SAQR (L10F, G48V, L90M); assay: Inhibition of virus-induced cytopathogenicity in MT-4 cells, PRI-resistant mutant SAQR; format: cell-based; conditions: for EC50: Human immunodeficiency virus 1, MT4, read-out: EC50 SAQR
# Protocol: as §1, §2
# [11] = 0 °C, compound 6 80 μM, AMPH-B 100 μM
# [12] = MT4, read-out: EC50 HIV-1 (Table 2)
# [13] = Human immunodeficiency virus 2, C8166, read-out: EC50 HIV-2
# [14] = Human immunodeficiency virus 2, C8166, read-out: EC50 HIV-2 (Table 2)
compound,measurement,setting,value
"O=c1c2ccccc2sn1NS(=O)(=O)c1ccccc1 [Compound 6, N-(3-Oxo-1,2-benzisothiazol-2(3H)-yl)benzenesulfonamide]",EC50,[1],7 ± 2 µM
same,Selectivity Index (SI = CC50/EC50) EFVR,[1]; in round brackets,12
same,CC50 at 4 days,[2],86 ± 4 µM
same,EC50,[3],8 ± 1 µM
same,Selectivity Index (SI = CC50/EC50) A17,[3]; in round brackets,10
same,Interference with syncytia formation / very early events (adsorption/attachment/fusion),[4]; 30 μM,did not interfere
same,Inhibition of recombinant HIV-1 IN,[5]; at concentrations of 30 μM,none of the benzenesulfonamides were active
same,IC50,[5]; read-out: IC50 3'-Processing,> 30 µM
same,IC50,[5]; read-out: IC50 Strand-transfer,> 30 µM
same,Infectious virus yield when compound present only during the 1-h infection period,HIV-1 wt,infectious virus yield similar to that of the untreated infected controls
same,Time of addition p.i. up to which the compound still prevents virus yield,HIV-1 wt,up to 12 h
same,Inhibition of recombinant HIV-1 RT,[6]; at concentrations of 30 μM,none of the benzenesulfonamides were active
same,IC50,[6]; virion-associated RT,> 30 µM
same,EC50,[7],4 ± 1.5 µM
same,Selectivity Index (SI = CC50/EC50) MDR,[7]; in round brackets,21
same,"Effect on HIV-2 infectivity, incubation at 0 °C",cell-free HIV-2; [11],failed to significantly affect HIV-2 infectivity
same,Infectivity inactivation of cell-free HIV-2,"cell-free HIV-2; 25 and 12.5 μM, 37 °C",only marginal or no effects
same,Inactivation of HIV-2 virion infectivity,"cell-free HIV-2; 37 °C, compound 6 80 μM, AMPH-B 100 μM",approximately 2 log10
same,Infectivity inactivation of cell-free HIV-2,"cell-free HIV-2; 100 and 50 μM, 37 °C",strongly inactivated the infectivity
same,EC50,HIV-1 N119 (Y181C),7 ± 1.5 µM
same,Selectivity Index (SI = CC50/EC50) N119,HIV-1 N119 (Y181C); in round brackets,12
same,"Effect on HIV-1 infectivity, incubation at 0 °C",cell-free HIV-1; [11],failed to affect HIV-1 infectivity
same,Infectivity inactivation of cell-free HIV-1,cell-free HIV-1; 25 and 12.5 μM,only marginal or no effects
same,Infectivity inactivation of cell-free HIV-1,cell-free HIV-1; 100 and 50 μM,strongly inactivated the infectivity
same,Inactivation of HIV-1 infectivity,"cell-free HIV-1; 2 h at 37 °C, compound 6 80 μM, AMPH-B 100 μM",more than 3 log10
same,Selectivity Index (SI) against all tested strains,[8],around 10
same,EC50,"HIV-1 IIIB strain; MT4, read-out: EC50 HIV-1",8 ± 3 µM
same,EC50,HIV-1 IIIB strain; [12],8 ± 3 µM
same,Selectivity Index (SI = CC50/EC50) HIV-1,"HIV-1 IIIB strain; IIIB strain, in round brackets",10
same,EC50,[9],6 ± 0.7 µM
same,Selectivity Index (SI = CC50/EC50) AZTR,[9]; in round brackets,14
same,EC50,HIV-2 CBL-20 strain; [13],7 ± 0.7 µM
same,EC50,HIV-2 CBL-20 strain; [14],7 ± 0.7 µM
same,Selectivity Index (SI = CC50/EC50) HIV-2,HIV-2 CBL-20 strain; in round brackets,12
same,EC50,[10],8 ± 0.7 µM
same,Selectivity Index (SI = CC50/EC50) SAQR,[10]; in round brackets,10
"O=C1Nc2ccc(Cl)cc2[C@@](C#CC2CC2)(C(F)(F)F)O1 [EFV, efavirenz, reference compound]",EC50,[1],3 ± 1 µM
same,CC50 at 4 days,"[2]; MT-4, MTT method",30 ± 5 µM
same,EC50,[3],0.3 ± 0.009 µM
same,Infectious virus yield when compound present only during the 1-h infection period,HIV-1 wt,infectious virus yield similar to that of the untreated infected controls
same,Time of addition p.i. up to which the compound still prevents virus yield,HIV-1 wt,≤ 4 h
same,EC50,[7],0.004 µM
same,EC50,HIV-1 N119 (Y181C),0.008 ± 0.003 µM
same,EC50,"HIV-1 IIIB strain; MT4, read-out: EC50 HIV-1",0.002 ± 0.0003 µM
same,EC50,HIV-1 IIIB strain; [12],0.002 ± 0.0003 µM
same,EC50,[9],0.002 ± 0.0003 µM
same,EC50,HIV-2 CBL-20 strain; [13],> 20 µM
same,EC50,HIV-2 CBL-20 strain; [14],> 20 µM
same,EC50,[10],0.007 ± 0.005 µM
dextran sulphate [reference compound],Prevention of syncytia formation,[4]; 0.5 μM,98%
